Among the data in the NIST ThermoML archive (doi:10.1021/je0341357) are Critical temperature values, retold here.

± gives the expanded uncertainty stated by the source.

For this series the following is noted: Liquid; Visual observation in an unstirred cell.
Turning to `CCCN` [propan-1-amine], the Critical temperature was determined as 499.2 ± 0.4 K. The same measure for `CCCCC1CCCCC1` [butylcyclohexane]: 653.1 ± 0.4 K; for `C/C=C/CCCC` [2-heptene, (E)-]: 542.8 ± 0.4 K; for `C=C(C)C(C)C` [2,3-dimethyl-1-butene]: 497.7 ± 0.9 K. The same measure for `CCCCC=C(C)C` [2-methyl-2-heptene]: 568.9 ± 1.1 K. The same measure for `C=C(C)CCCCC` [2-methyl-1-heptene]: 567.5 ± 0.9 K; for `CCCCCCN` [1-hexanamine]: 592.3 ± 0.7 K; for `CCC1CCCCC1` [ethylcyclohexane]: 606.9 ± 0.4 K. `CC(C)(C)C1CCCCC1` [1,1-dimethylethylcyclohexane]: the Critical temperature was 652 ± 0.4 K. Take `CC/C=C/CC` [(E)-3-hexene]: the Critical temperature is given as 507.4 ± 2 K.

On to `C/C=C\CCC` [(Z)-2-hexene], for which the Critical temperature is 513.4 ± 0.9 K.

For `C=CC(C)(C)C` [3,3-dimethyl-1-butene], the Critical temperature was found to be 477.4 ± 0.9 K. The same measure for `C1CCCCC1` [cyclohexane]: 553.6 ± 1.1 K; for `C/C=C\CCCC` [2-heptene, (Z)-]: 548.5 ± 0.6 K; for `CCCCCCNC` [1-hexanamine, N-methyl-]: 592 ± 1 K.

For the compound `CCCNCCC` [dipropylamine], the Critical temperature is reported as 555.8 ± 1.1 K. On to `CC/C=C/CCC` [3-heptene, (E)-], for which the Critical temperature came out at 538.6 ± 0.7 K. Take `CC/C=C\CC` [(Z)-3-hexene]: the Critical temperature was found to be 510.2 ± 1.4 K.

Turning to `C/C=C\C(C)C` [(Z)-4-methyl-2-pentene], the Critical temperature came to 496.3 ± 0.7 K. The same measure for `C=CCC(C)(C)C` [4,4-dimethyl-1-pentene]: 516 ± 4 K; for `C/C=C/CCCCC` [(E)-2-octene]: 569.8 ± 0.4 K.

Take `CC(C)CC1CCCCC1` [2-methylpropylcyclohexane]: the Critical temperature was determined as 642.1 ± 0.6 K. The same measure for `CC(C)C1CCCCC1` [(1-methylethyl)cyclohexane]: 632.2 ± 0.4 K; for `C=C(C)CCC` [2-methyl-1-pentene]: 521 ± 0.4 K.

As to `CCCCNCCCC` [dibutylamine], the Critical temperature was found to be 607.5 ± 1.1 K. For the compound `C/C=C/CCC` [(E)-2-hexene], the Critical temperature is recorded as 509 ± 0.7 K. As for `CCCC1CCCCC1` [1-cyclohexylpropane], the Critical temperature is 630.8 ± 0.9 K.

Regarding `C1CCCCCCC1` [cyclooctane], the Critical temperature stood at 647.5 ± 0.4 K. The same measure for `CC(C)N` [2-propanamine]: 472.5 ± 0.4 K; for `C=C(C)C(C)CC` (centres undefined) [2,3-dimethyl-1-pentene]: 533.6 ± 4.3 K; for `NC1CCCCC1` [cyclohexylamine]: 626.8 ± 0.9 K.

As to `C=CCCC(C)C` [5-methyl-1-hexene], the Critical temperature is on record as 528.7 ± 0.4 K. Regarding `C=C(C)CC` [2-methyl-1-butene], the Critical temperature came out at 467 ± 0.5 K. Consider `CCC/C=C/CCC` [(E)-4-octene], for which the Critical temperature was 566.3 ± 1.1 K.

With `CC(C)=C(C)C` [2,3-dimethyl-2-butene], the Critical temperature is reported as 521 ± 0.9 K.

Take `CCCCCC(C)N` (centres undefined) [1-methylhexylamine]: the Critical temperature is recorded as 598 ± 2.1 K.

In the case of `CCC=C(C)C` [2-methyl-2-pentene], the Critical temperature is given as 509.3 ± 0.5 K. The same measure for `C=CCC(C)C` [4-methyl-1-pentene]: 493.1 ± 0.5 K.

Consider `C=C(C)CCCC` [2-methyl-1-hexene], for which the Critical temperature worked out at 541.8 ± 1.1 K.
